This series is described as follows: Body weight and innervated muscle weight under rapamycin treatment (Table 2). The conditions noted are these: for Gastroc weight, innervated muscle / TA weight, innervated muscle / sol (soleus) weight, innervated muscle / Body weight after / Body weight before: individual mice; for TA weight, innervated muscle, MEAN / sol (soleus) weight, innervated muscle, MEAN / Body weight after, MEAN / Body weight before, MEAN: mean of 6 mice; for Body weight after, MEAN / Body weight before, MEAN: in g. More on the design: key to Body weight before / Body weight after: body weight in g; Gastroc weight, innervated muscle: unit not given here. Type of series: in vivo, mouse. On the procedure: Rapamycin (LC Laboratories; Woburn, Mass.) was initially dissolved in 100% ethanol, stored at −20° C., and further diluted in an aqueous solution of 5.2% Tween 80 and 5.2% PEG 400 (final ethanol concentration, 2%) immediately before use (Wendel et al., 2004). Denervated NSA mice (male, 40 g) were injected immediately with rapamycin i.p. at 1.5 mg/kg, or 6 mg/kg body weight, every other day. Control mice were injected with vehicle with the same amount of ethanol solvent with rapamycin group (6 mg·kg). Muscle samples were collected 15 days later. Muscle wet weight was recorded immediately. For immunostaining, muscles were frozen in OCT in dry ice-cold isopentane. For RNA and protein extraction, muscles were quickly frozen in liquid nitrogen. Student t-test was used to evaluate the statistical significance. P<0.05 was considered as statistically significant. Each of these experiments were performed such that there were 3 to 6 separate experimental mice (for each genotype, dose, and time-point) and 3-6 separate control mice per experiment.

Where [1] appears, read: Inn + 1.5 (rapamycin 1.5 mg/kg i.p. every other day, 15 days), in g (unit assumed).
The mark [2] stands for this setting: Inn + 1.5 (rapamycin 1.5 mg/kg), in g (unit assumed).
Where [3] appears, read: Inn + 6 (rapamycin 6 mg/kg i.p. every other day, 15 days).
[4] abbreviates: Inn + 6 (rapamycin 6 mg/kg), in g (unit assumed).
Where [5] appears, read: rapamycin at the doses used (1.5 or 6 mg/kg i.p. every other day).

Several values for one entry are separate records, joined by “and”; a condition that tells them apart may be missing. Equal entries are not always repeated.

Regarding `CO[C@H]1C[C@@H]2CC[C@@H](C)[C@@](O)(O2)C(=O)C(=O)N2CCCC[C@H]2C(=O)O[C@H]([C@H](C)C[C@@H]2CC[C@@H](O)[C@H](OC)C2)CC(=O)[C@H](C)/C=C(\C)[C@@H](O)[C@@H](OC)C(=O)[C@H](C)C[C@H](C)/C=C/C=C/C=C/1C` [rapamycin, Rapamycin], the “Gastroc weight, innervated muscle” value (Inn + 1.5 (rapamycin 1.5 mg/kg i.p. every other day, 15 days)) was 0.1984 and 0.2043 and 0.2062 and 167.3 and 196.7; the “Gastroc weight, innervated muscle” value under setting [3] was 0.2084 and 0.2168 and 0.1798 and 217.7 and 230.5. Also, the “TA weight, innervated muscle” value runs as follows: under setting [1], 0.0719 and 0.0697 and 0.068 and 0.0898 and 0.0795 and 0.0597; (Inn + 6 (rapamycin 6 mg/kg i.p. every other day, 15 days), in g (unit assumed)) 0.0686 and 0.0751 and 0.0645 and 0.078 and 0.0713 and 0.0759. In addition, the “sol (soleus) weight, innervated muscle” value by setting is: under setting [1], 0.0114 and 0.0095 and 0.0099 and 0.0106 and 0.0102 and 0.0075; under setting [3], 0.0102 and 0.0116 and 0.0106 (3×) and 0.0115. Further, the “TA weight, innervated muscle, MEAN” value is, setting by setting: under setting [2], 0.0731; under setting [4], 0.07223. Besides, the “sol (soleus) weight, innervated muscle, MEAN” value under setting [2] is on record as 0.00985 and the “sol (soleus) weight, innervated muscle, MEAN” value under setting [4] was 0.01085. Besides, the Body weight after (Rapa − 1.5, after) was 45 and 46 and 42 (2×) and 40 and 39; the Body weight after (Rapa − 6, after, in g (unit assumed)) is 46 and 38 and 41 and 42 and 40 and 39. Besides, the “Body weight after, MEAN” value is 42.33 (Rapa − 1.5, after) and 41 (Rapa − 6, after). Further, the Body weight before reads like this: (Rapa − 1.5, before) 41 g (2×) and 46 g and 44 g and 42 g (2×); (Rapa − 6, before, in g (unit assumed)) 39 and 42 and 55 and 43 and 41 and 44. Also, the “Body weight before, MEAN” value is, setting by setting: (Rapa − 1.5, before) 42.67; (Rapa − 6, before) 44. Besides, the “influence on body weight” value under setting [5] is recorded as “did not influence”. Besides, the “influence on innervated muscle weight” value by setting is: under setting [5], “does not change”; (rapamycin at the doses used (1.5 or 6 mg/kg i.p. every other day), listed as Rapamycin) “did not influence”.

(Values after patent US9511057B2, “Methods for treating denervation-induced muscle atrophy” (THE BOARD OF TRUSTEES OF THE LELAND STANFORD JUNIOR …, priority 2013, dated 2016).)
